In ChEMBL document CHEMBL6096661, “Synthesis, biological evaluation and mechanism study of a novel indole-pyridine chalcone derivative as antiproliferative agent against tumor cells through dual targeting tubulin and HK2” (Eur J Med Chem, 2025):
Activity calls are given as the source filed them. The calls are words filed in the database; no cut-off is given here.

What was measured:
MDA-MB-231 = experiment: Antiproliferative activity against human MDA-MB-231 cells assessed as reduction in cell proliferation incubated for 48 hrs by CCK-8 assay; assay type: functional, cell-based; conditions: MDA-MB-231, 48 h
SW480 = experiment: Antiproliferative activity against human SW480 cells assessed as inhibition of cell growth incubated for 48 hrs by CCK-8 assay; assay type: functional, cell-based; conditions: SW480, 48 h
HCT-116 = experiment: Antiproliferative activity against human HCT-116 cells assessed as inhibition of cell growth incubated for 48 hrs by CCK-8 assay; assay type: functional, cell-based; conditions: HCT-116, 48 h
HT-1080 = experiment: Antiproliferative activity against human HT-1080 cells assessed as inhibition of cell growth incubated for 48 hrs by CCK-8 assay; assay type: functional, cell-based; conditions: HT-1080, 48 h
LoVo = experiment: Antiproliferative activity against human LoVo cells assessed as inhibition of cell growth incubated for 48 hrs by CCK-8 assay; assay type: functional, cell-based
[1] = biological target: T1, Hexokinase-2 (Homo sapiens) (UniProt P52789); experiment: Inhibition of human HK2 transfected in Escherichia coli BL21 (DE) incubated for 10 mins
T1 sequence (whole entry): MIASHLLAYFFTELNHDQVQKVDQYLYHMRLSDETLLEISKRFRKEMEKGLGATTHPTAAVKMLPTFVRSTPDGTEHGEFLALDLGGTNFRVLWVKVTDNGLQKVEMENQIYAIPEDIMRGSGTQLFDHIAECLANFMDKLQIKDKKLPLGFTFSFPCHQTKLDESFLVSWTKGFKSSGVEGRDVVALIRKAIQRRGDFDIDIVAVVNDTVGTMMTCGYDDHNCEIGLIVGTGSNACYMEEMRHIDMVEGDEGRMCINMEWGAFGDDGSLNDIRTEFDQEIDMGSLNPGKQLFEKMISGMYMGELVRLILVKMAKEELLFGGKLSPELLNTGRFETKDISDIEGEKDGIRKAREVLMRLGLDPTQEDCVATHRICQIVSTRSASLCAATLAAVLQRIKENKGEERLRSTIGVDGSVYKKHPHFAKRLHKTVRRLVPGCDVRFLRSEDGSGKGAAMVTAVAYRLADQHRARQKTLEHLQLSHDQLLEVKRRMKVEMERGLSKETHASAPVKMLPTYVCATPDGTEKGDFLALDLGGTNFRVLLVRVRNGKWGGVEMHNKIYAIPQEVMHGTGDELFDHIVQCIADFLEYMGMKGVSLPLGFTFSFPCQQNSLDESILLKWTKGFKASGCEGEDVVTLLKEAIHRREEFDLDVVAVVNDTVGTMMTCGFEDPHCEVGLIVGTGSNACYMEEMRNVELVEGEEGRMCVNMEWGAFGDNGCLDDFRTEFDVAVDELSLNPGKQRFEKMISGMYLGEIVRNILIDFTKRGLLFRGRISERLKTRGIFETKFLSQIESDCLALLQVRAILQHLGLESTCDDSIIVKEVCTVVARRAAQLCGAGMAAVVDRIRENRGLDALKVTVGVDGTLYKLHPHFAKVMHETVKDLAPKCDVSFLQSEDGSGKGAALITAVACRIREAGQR

Row | SMILES | IC50 (MDA-MB-231) | also measured
1 | Cc1ccc(S(=O)(=O)n2cc(/C=C/C(=O)c3ccncc3)c3cc(N4CCOCC4)ccc32)cc1 | 3.51 µM | –
2 | O=[N+]([O-])c1ccc(S(=O)(=O)n2cc(C3CC(c4ccncc4)=NO3)c3cc(N4CCOCC4)ccc32)cc1 (centres undefined) | 150 µM | –
3 | Cc1ccc(S(=O)(=O)n2cc(/C=C/C(=O)c3ccncc3)c3ccccc32)cc1 | 8.49 µM | –
4 | O=C(/C=C/c1cn(S(=O)(=O)c2ccc(F)cc2)c2ccc(N3CCOCC3)cc12)c1ccncc1 | 5.48 µM | –
5 | O=C(/C=C/c1cn(S(=O)(=O)c2cccc3ccccc23)c2ccc(N3CCOCC3)cc12)c1ccncc1 | 45.4 µM | –
6 | O=C(/C=C/c1cn(S(=O)(=O)c2cccnc2)c2ccc(N3CCOCC3)cc12)c1ccncc1 | 2.89 µM | –
7 | O=C(/C=C/c1cn(S(=O)(=O)c2ccc(C(F)(F)F)cc2)c2ccc(N3CCOCC3)cc12)c1ccncc1 | 4.81 µM | –
8 | C/C(=C\c1c[nH]c2ccc(N3CCOCC3)cc12)C(=O)c1cccnc1 | 56.6 µM | –
9 | O=C(/C=C/c1cn(S(=O)(=O)c2ccc([N+](=O)[O-])cc2)c2ccc(N3CCOCC3)cc12)c1ccco1 | 27.1 µM | –
10 | COc1cc(C(=O)/C=C/c2cn(CO)c3ccc(N4CCOCC4)cc23)cc(OC)c1OC | 12.5 µM | –
11 | O=C(/C=C/c1cn(S(=O)(=O)c2ccc([N+](=O)[O-])cc2)c2ccc(N3CCOCC3)cc12)c1ccccn1 | 0.915 µM | IC50 (SW480): 1.08 µM; IC50 (HCT-116): 1.04 µM; IC50 (HT-1080): 0.793 µM; IC50 (LoVo): 0.74 µM
12 | O=C(/C=C/c1cn(S(=O)(=O)c2ccc(I)cc2)c2ccc(N3CCOCC3)cc12)c1ccncc1 | 20.5 µM | –
13 | O=C(/C=C/c1cn(S(=O)(=O)c2ccc([N+](=O)[O-])cc2)c2ccc(N3CCOCC3)cc12)c1nccs1 | 8 µM | –
14 | COc1ccc(C(=O)/C=C/c2cn(S(=O)(=O)c3ccc([N+](=O)[O-])cc3)c3ccc(N4CCOCC4)cc23)cn1 | 73.9 µM | –
15 | O=C(/C=C/c1cn(S(=O)(=O)c2ccc([N+](=O)[O-])cc2)c2ccc(N3CCOCC3)cc12)c1cncnc1 | 1.59 µM | IC50 (SW480): 0.716 µM; IC50 (HCT-116): 1.57 µM; IC50 (HT-1080): 0.469 µM; IC50 (LoVo): 0.679 µM
16 | COc1cc(C(=O)/C=C/c2cn(S(=O)(=O)c3ccc(C)cc3)c3ccc(N4CCOCC4)cc23)cc(OC)c1OC | 19.9 µM | –
17 | O=C(/C=C/c1cn(S(=O)(=O)c2ccc3ccccc3c2)c2ccc(N3CCOCC3)cc12)c1ccncc1 | 12.8 µM | –
18 | O=C(/C=C/c1cn(S(=O)(=O)c2ccc([N+](=O)[O-])cc2)c2ccc(N3CCCCC3)cc12)c1cccnc1 | 0.816 µM | IC50 (SW480): 0.999 µM; IC50 (HCT-116): 3.19 µM; IC50 (HT-1080): 0.751 µM; IC50 (LoVo): 0.765 µM
19 | O=C(/C=C/c1cn(S(=O)(=O)c2ccc([N+](=O)[O-])cc2)c2ccc(N3CCOCC3)cc12)c1cncc2ccccc12 | 8.7 µM | –
20 | COc1cc(C(=O)/C=C/c2cn(S(=O)(=O)c3ccc([N+](=O)[O-])cc3)c3ccc(N4CCOCC4)cc23)cc(OC)c1OC | 15.6 µM | –
21 | O=C(/C=C/c1cn(C(=O)c2ccccc2)c2ccc(N3CCOCC3)cc12)c1ccncc1 | 7.7 µM | –
22 | COc1cc(C(=O)/C=C/c2cn(C(=O)c3cc(OC)c(OC)c(OC)c3)c3ccc(N4CCOCC4)cc23)cc(OC)c1OC | 13.8 µM | –
23 | c1cc(C2=NOC(c3c[nH]c4ccc(N5CCOCC5)cc34)C2)ccn1 (centres undefined) | 200 µM | –
24 | Cc1[nH]c2ccc(N3CCOCC3)cc2c1/C=C/C(=O)c1cccnc1 | 42.5 µM | –
25 | O=C(/C=C/c1c[nH]c2ccc(N3CCOCC3)cc12)c1ccncc1 | 39.3 µM | –
26 | CC(=O)n1cc(/C=C/C(=O)c2ccncc2)c2cc(N3CCOCC3)ccc21 | 7.77 µM | –
27 | O=C(/C=C/c1cn(S(=O)(=O)c2ccc(Cl)cc2)c2ccc(N3CCOCC3)cc12)c1ccncc1 | 7.19 µM | –
28 | O=C(/C=C/c1cn(Cc2ccccc2)c2ccc(N3CCOCC3)cc12)c1ccncc1 | 148 µM | –

Row | SMILES | IC50 (MDA-MB-231) | also measured
29 | O=C(/C=C/c1cn(S(=O)(=O)c2ccc([N+](=O)[O-])cc2)c2ccc(N3CCSCC3)cc12)c1cccnc1 | 3.94 µM | –
30 | COc1cc(C(=O)/C=C/c2c[nH]c3ccc(N4CCOCC4)cc23)cc(OC)c1OC | 11.2 µM | –
31 | O=C(/C=C/c1cn(S(=O)(=O)c2ccc([N+](=O)[O-])cc2)c2ccc(N3CCOCC3)cc12)c1cnc2ccccc2c1 | 104 µM | –
32 | C/C(=C\c1cn(S(=O)(=O)c2ccc([N+](=O)[O-])cc2)c2ccc(N3CCOCC3)cc12)C(=O)c1cccnc1 | 43.1 µM | –
33 | CC(C)(C)OC(=O)n1cc(/C=C/C(=O)c2ccncc2)c2cc(N3CCOCC3)ccc21 | 7.52 µM | –
34 | COc1ccc(S(=O)(=O)n2cc(/C=C/C(=O)c3ccncc3)c3cc(N4CCOCC4)ccc32)cc1 | 7.58 µM | –
35 | O=C(/C=C/c1cn(S(=O)(=O)c2ccc(Br)cc2)c2ccc(N3CCOCC3)cc12)c1ccncc1 | 9.53 µM | –
36 | N#Cc1ccc(S(=O)(=O)n2cc(/C=C/C(=O)c3ccncc3)c3cc(N4CCOCC4)ccc32)cc1 | 5.48 µM | –
37 | Cc1ccc(S(=O)(=O)n2cc(C=O)c3cc(N4CCOCC4)ccc32)cc1 | 15.9 µM | –
38 | Cc1ccc(C(=O)/C=C/c2cn(S(=O)(=O)c3ccc([N+](=O)[O-])cc3)c3ccc(N4CCOCC4)cc23)cn1 | 6.25 µM | –
39 | O=C(/C=C/c1cn(S(=O)(=O)c2ccc([N+](=O)[O-])cc2)c2ccc(N3CCOCC3)cc12)c1ccncc1 | 1.53 µM | IC50 (SW480): 1.08 µM; IC50 (HCT-116): 1.85 µM; IC50 (HT-1080): 0.681 µM; IC50 (LoVo): 0.392 µM
40 | O=C(/C=C/c1cn(S(=O)(=O)c2ccc([N+](=O)[O-])cc2)c2ccc(N3CCOCC3)cc12)c1ncccn1 | 1.81 µM | IC50 (SW480): 2.03 µM; IC50 (HCT-116): 3.46 µM; IC50 (HT-1080): 1.19 µM; IC50 (LoVo): 1.3 µM
41 | O=C(/C=C/c1cn(S(=O)(=O)c2ccc([N+](=O)[O-])cc2)c2ccc(N3CCOCC3)cc12)c1ccc(N2CCCCC2)nc1 | 151 µM | –
42 | O=C(/C=C/c1cn(S(=O)(=O)Cc2ccccc2)c2ccc(N3CCOCC3)cc12)c1ccncc1 | 2.5 µM | –
43 | O=C(/C=C/c1cn(S(=O)(=O)c2ccc([N+](=O)[O-])cc2)c2ccc(N3CCOCC3)cc12)c1ccccc1 | 23.9 µM | –
44 | COc1ccc(C(=O)/C=C/c2cn(S(=O)(=O)c3ccc([N+](=O)[O-])cc3)c3ccc(N4CCOCC4)cc23)c(OC)n1 | 416 µM | –
45 | COc1cc(C(=O)/C=C/c2cn(C)c3ccc(N4CCOCC4)cc23)cc(OC)c1OC | 12.1 µM | –
46 | c1cc(C2=NNC(c3c[nH]c4ccc(N5CCOCC5)cc34)C2)ccn1 (centres undefined) | 180 µM | –
47 | Cc1ccc(C(=O)/C=C/c2cn(S(=O)(=O)c3ccc([N+](=O)[O-])cc3)c3ccc(N4CCOCC4)cc23)c(C)n1 | 1.07 µM | IC50 (SW480): 0.655 µM; IC50 (HCT-116): 1.13 µM; IC50 (HT-1080): 0.754 µM; IC50 (LoVo): 0.221 µM
48 | CC(C)(C)c1ccc(S(=O)(=O)n2cc(/C=C/C(=O)c3ccncc3)c3cc(N4CCOCC4)ccc32)cc1 | 7.98 µM | –
49 | O=C(/C=C/c1cn(S(=O)(=O)c2ccccc2)c2ccc(N3CCOCC3)cc12)c1ccncc1 | 7.29 µM | –
50 | O=Cc1c[nH]c2ccc(N3CCOCC3)cc12 | 88.6 µM | –
51 | COc1cc2c(c(OC)c1OC)-c1ccc(OC)c(=O)cc1[C@@H](NC(C)=O)CC2 [COLCHICINE] | 2.2 µM | inhibition [1]: inactive
52 | O=C(/C=C/c1cn(S(=O)(=O)c2ccc([N+](=O)[O-])cc2)c2cc(N3CCOCC3)ccc12)c1cccnc1 | 0.857 µM | IC50 (SW480): 0.718 µM; IC50 (HCT-116): 1.7 µM; IC50 (HT-1080): 0.773 µM; IC50 (LoVo): 0.792 µM
53 | O=C(/C=C/c1cn(S(=O)(=O)c2cccs2)c2ccc(N3CCOCC3)cc12)c1ccncc1 | 7.53 µM | –
54 | c1cncc(C2=NOC(c3c[nH]c4ccc(N5CCOCC5)cc34)C2)c1 (centres undefined) | 90.3 µM | –
55 | COc1ccc2c(c1)c(/C=C/C(=O)c1ccncc1)cn2S(=O)(=O)c1ccc(C)cc1 | 3.81 µM | –
